Molecular target: T1, CDK9 (Homo sapiens, UniProt P50750)
T1 construct: NCIH211 cells with endogenously tagged N-terminal CDK9-HiBit; endogenous in cells; host or cells: NCIH211 cells (endogenous CDK9 locus tagged with HiBit)
Assay: CDK9 degradation by HiBit assay, NCIH211 cells
Assay type: cell-based
Settings: NCIH211 cells with endogenously tagged N-terminal CDK9-HiBit, 24 hours incubation; read-out: HiBit-NCIH211.2 DC50
Procedure: Exemplary compounds of the invention were tested for degradation of CDK9. The compounds were tested in 10-dose DC50 duplicate mode with a 3-fold serial dilution starting at 10 μM by HiBit assay (Promega, Inc) as a direct measurement of CDK9 presence, with incubation time of 24 hours using either NCIH211 cells with endogenously tagged N-terminal CDK9-HiBit or NCIH1048 cells with endogenously tagged N-terminal CDK9-HiBit. A control compound (THAL-SNS-032, CAS 2139287-33-3) was tested in 10-dose DC50 mode with 3-fold serial dilution starting at 10 μM. Data was normalized to positive (medium only) and negative (cells with no treatment) controls and curve fits were analyzed with CDK9 as % response vs. log [compound concentration] using a 4-parameter logistic model by GraphPad software. For Table 2: A is <100, B is <1000 C is <10,000, D is >10,000 and ND is Not Determined.

T1 sequence (P50750 whole entry): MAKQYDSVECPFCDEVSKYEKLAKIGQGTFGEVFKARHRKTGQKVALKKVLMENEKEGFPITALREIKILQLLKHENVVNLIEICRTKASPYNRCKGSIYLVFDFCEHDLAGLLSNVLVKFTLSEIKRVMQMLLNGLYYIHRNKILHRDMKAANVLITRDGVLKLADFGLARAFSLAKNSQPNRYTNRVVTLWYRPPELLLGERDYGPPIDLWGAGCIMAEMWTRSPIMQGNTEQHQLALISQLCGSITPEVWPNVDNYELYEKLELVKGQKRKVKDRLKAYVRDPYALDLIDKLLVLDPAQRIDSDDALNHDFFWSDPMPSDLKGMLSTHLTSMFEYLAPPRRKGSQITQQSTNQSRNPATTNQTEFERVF
T1 sequence (O60563 whole entry partner): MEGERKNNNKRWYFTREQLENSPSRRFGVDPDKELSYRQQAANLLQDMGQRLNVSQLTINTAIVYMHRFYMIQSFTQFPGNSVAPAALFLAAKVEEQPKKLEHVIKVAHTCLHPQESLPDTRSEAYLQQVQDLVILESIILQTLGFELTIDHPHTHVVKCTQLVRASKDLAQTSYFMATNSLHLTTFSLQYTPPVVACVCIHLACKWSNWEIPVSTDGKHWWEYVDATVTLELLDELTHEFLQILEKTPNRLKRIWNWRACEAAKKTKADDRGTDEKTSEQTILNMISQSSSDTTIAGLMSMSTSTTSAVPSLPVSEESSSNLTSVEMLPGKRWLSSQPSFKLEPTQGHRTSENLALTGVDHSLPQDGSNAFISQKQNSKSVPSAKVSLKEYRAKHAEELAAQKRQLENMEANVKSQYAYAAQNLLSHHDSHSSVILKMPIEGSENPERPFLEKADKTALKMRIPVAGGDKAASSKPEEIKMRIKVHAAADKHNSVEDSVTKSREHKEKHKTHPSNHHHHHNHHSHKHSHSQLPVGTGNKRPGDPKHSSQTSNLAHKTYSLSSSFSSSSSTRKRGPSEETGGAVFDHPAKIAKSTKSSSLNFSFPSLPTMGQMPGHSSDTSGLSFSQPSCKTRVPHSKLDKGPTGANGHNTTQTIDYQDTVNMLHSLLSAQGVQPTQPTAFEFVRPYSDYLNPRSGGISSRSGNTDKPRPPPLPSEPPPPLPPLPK

SMILES | DC50
CCC(CC)c1cc(N[C@H]2CC[C@H](NCCOCCOCCOCCNc3cccc4c3C(=O)N(C3CCC(=O)NC3=O)C4=O)C2)n2ncc(Cl)c2n1 (stereo partly drawn) [Compound 11.0, 2-(2,6-dioxo-3-piperidyl)-4-[2-[2-[2-[2-[[(1S,3S)-3-[[3-chloro-5-(1-ethylpropyl)pyrazolo[1,5-a]pyrimidin-7-yl]amino]cyclopentyl]amino]ethoxy]ethoxy]ethoxy]ethylamino]isoindoline-1,3-dione] | < 10 µM
CCC(CC)c1cc(N[C@H]2CC[C@H](NCC(=O)NCCCc3cn(CCOCCNc4cccc5c4C(=O)N(C4CCC(=O)NC4=O)C5=O)nn3)C2)n2ncc(Cl)c2n1 (some centres unmarked) [Compound 23.0] | < 10 µM
CCC(CC)c1cc(N[C@H]2CC[C@H](NCCOCCOCCOCCn3cc(CNc4cccc5c4C(=O)N(C4CCC(=O)NC4=O)C5=O)nn3)C2)n2ncc(Cl)c2n1 (some centres unmarked) [Compound 16.0] | > 10 µM
CCC(CC)c1cc(N[C@H]2CC[C@H](NCc3cn(CCOCCOCCNc4cccc5c4C(=O)N(C4CCC(=O)NC4=O)C5=O)nn3)C2)n2nccc2n1 (stereo partly drawn) [Compound 9.0, 2-(2,6-dioxo-3-piperidyl)-4-[2-[2-[2-[4-[[[(1S,3S)-3-[[5-(1-ethylpropyl)pyrazolo[1,5-a]pyrimidin-7-yl]amino]cyclopentyl]amino]methyl]triazol-1-yl]ethoxy]ethoxy]ethylamino]isoindoline-1,3-dione] | < 10 µM
CCC(CC)c1cc(N[C@H]2CC[C@H](NCCN3CCN(CCOCC(=O)N[C@H](C(=O)N4C[C@H](O)C[C@H]4C(=O)NCc4ccc(-c5scnc5C)cc4)C(C)(C)C)CC3)C2)n2nccc2n1 [Compound 18.0, (2S,4R)-1-[(2S)-2-[[2-[2-[4-[2-[[(1S,3S)-3-[[5-(1-ethylpropyl)pyrazolo[1,5-a]pyrimidin-7-yl]amino]cyclopentyl]amino]ethyl]piperazin-1-yl]ethoxy]acetyl]amino]-3,3-dimethyl-butanoyl]-4-hydroxy-N-[[4-(4-methylthiazol-5-yl)phenyl]methyl]pyrrolidine-2-carboxamide] | > 10 µM
CCC(CC)c1cc(N[C@H]2CC[C@H](NCCOCCOCCOCCOCCNc3cccc4c3C(=O)N(C3CCC(=O)NC3=O)C4=O)C2)n2ncc(Cl)c2n1 (stereo partly drawn) [Compound 13.0, 4-[2-[2-[2-[2-[2-[[(1S,3S)-3-[[3-chloro-5-(1-ethylpropyl)pyrazolo[1,5-a]pyrimidin-7-yl]amino]cyclopentyl]amino]ethoxy]ethoxy]ethoxy]ethoxy]ethylamino]-2-(2,6-dioxo-3-piperidyl)isoindoline-1,3-dione] | < 10 µM
CCC(CC)c1cc(N[C@H]2CC[C@H](NCc3cn(CCOCCOCCOCCOc4cc(-c5scnc5C)ccc4CNC(=O)[C@@H]4C[C@@H](O)CN4C(=O)[C@H](C(C)C)N4Cc5ccccc5C4=O)nn3)C2)n2nccc2n1 [Compound 39.0] | > 10 µM
CCC(CC)c1cc(N[C@H]2CC[C@H](NCCOCCOCCOCCOCCNc3cccc4c3C(=O)N(C3CCC(=O)NC3=O)C4=O)C2)n2nccc2n1 (stereo partly drawn) [Compound 8.0, 2-(2,6-dioxo-3-piperidyl)-4-[2-[2-[2-[2-[2-[[(1S,3S)-3-[[5-(1-ethylpropyl)pyrazolo[1,5-a]pyrimidin-7-yl]amino]cyclopentyl]amino]ethoxy]ethoxy]ethoxy]ethoxy]ethylamino]isoindoline-1,3-dione] | > 10 µM
CCC(CC)c1cc(N[C@H]2CC[C@H](NCC(=O)NCCCc3cn(CCOCCNc4cccc5c4C(=O)N(C4CCC(=O)NC4=O)C5=O)nn3)C2)n2nccc2n1 (some centres unmarked) [Compound 22.0] | > 10 µM
CCC(CC)c1cc(N[C@H]2CC[C@H](NC(=O)COCCOCCOCCNC(=O)COc3cccc4c3C(=O)N(C3CCC(=O)NC3=O)C4=O)C2)n2ncc(Cl)c2n1 (stereo partly drawn) [Compound 3.0, N-[(1S,3S)-3-[[3-chloro-5-(1-ethylpropyl)pyrazolo[1,5-a]pyrimidin-7-yl]amino]cyclopentyl]-2-[2-[2-[2-[[2-[2-(2,6-dioxo-3-piperidyl)-1,3-dioxo-isoindolin-4-yl]oxyacetyl]amino]ethoxy]ethoxy]ethoxy]acetamide] | > 10 µM
CCC(CC)c1cc(N[C@H]2CC[C@H](NC(=O)COCCOCCNC(=O)COc3cccc4c3C(=O)N(C3CCC(=O)NC3=O)C4=O)C2)n2nccc2n1 (stereo partly drawn) [Compound 1.0, 2-[2-[2-[[2-[2-(2,6-dioxo-3-piperidyl)-1,3-dioxo-isoindolin-4 yl]oxyacetyl]amino]ethoxy]ethoxy]-N-[(1S,3S)-3-[[5-(1-ethylpropyl)pyrazolo[1,5-a]pyrimidin-7-yl]amino]cyclopentyl]acetamide] | > 10 µM
CCC(CC)c1cc(N[C@H]2CC[C@H](NCC(=O)NCc3cn(CCOCCOCCOCCOCCOc4cc(-c5scnc5C)ccc4CNC(=O)[C@@H]4C[C@@H](O)CN4C(=O)[C@H](C(C)C)N4Cc5ccccc5C4=O)nn3)C2)n2nccc2n1 [Compound 32.0] | > 10 µM
CCC(CC)c1cc(N[C@H]2CC[C@H](NCCOCCOCCn3cc(CNc4cccc5c4C(=O)N(C4CCC(=O)NC4=O)C5=O)nn3)C2)n2ncc(Cl)c2n1 (some centres unmarked) [Compound 15.0] | < 10 µM
CCC(CC)c1cc(N[C@H]2CC[C@H](NCC(=O)NCCCn3cc(CCOCCNc4cccc5c4C(=O)N(C4CCC(=O)NC4=O)C5=O)nn3)C2)n2ncc(Cl)c2n1 (some centres unmarked) [Compound 24.0] | < 1 µM

Now from value to compound:

DC50 | SMILES
> 10 µM | CCC(CC)c1cc(N[C@H]2CC[C@H](NCC(=O)NCc3cn(CCOCCOCCOCCOCC(=O)N[C@H](C(=O)N4C[C@H](O)C[C@H]4C(=O)NCc4ccc(-c5scnc5C)cc4)C(C)(C)C)nn3)C2)n2nccc2n1 [Compound 28.0]
> 10 µM | CCC(CC)c1cc(N[C@H]2CC[C@H](NCC(=O)NCc3cn(CCOCCOCC(=O)N[C@H](C(=O)N4C[C@H](O)C[C@H]4C(=O)NCc4ccc(-c5scnc5C)cc4)C(C)(C)C)nn3)C2)n2nccc2n1 [Compound 26.0]
> 10 µM | CCC(CC)c1cc(N[C@H]2CC[C@H](NCc3cn(CCOCCOCCOCCOCC(=O)N[C@H](C(=O)N4C[C@H](O)C[C@H]4C(=O)NCc4ccc(-c5scnc5C)cc4)C(C)(C)C)nn3)C2)n2nccc2n1 [Compound 36.0]
> 10 µM | CCC(CC)c1cc(N[C@H]2CC[C@H](NCC(=O)NCCCc3cn(CCOCCOCCOCCOCC(=O)N[C@H](C(=O)N4C[C@H](O)C[C@H]4C(=O)NCc4ccc(-c5scnc5C)cc4)C(C)(C)C)nn3)C2)n2ncc(Cl)c2n1 [Compound 41.0]
> 10 µM | CCC(CC)c1cc(N[C@H]2CC[C@H](NCC(=O)NCCCc3cn(CCOCC(=O)N[C@H](C(=O)N4C[C@H](O)C[C@H]4C(=O)NCc4ccc(-c5scnc5C)cc4)C(C)(C)C)nn3)C2)n2ncc(Cl)c2n1 [Compound 43.0]
> 10 µM | CCC(CC)c1cc(N[C@H]2CC[C@H](NCC(=O)NCCCc3cn(CCOCCOCCOCC(=O)N[C@H](C(=O)N4C[C@H](O)C[C@H]4C(=O)NCc4ccc(-c5scnc5C)cc4)C(C)(C)C)nn3)C2)n2ncc(Cl)c2n1 [Compound 42.0]
> 10 µM | CCC(CC)c1cc(N[C@H]2CC[C@H](NCc3cn(CCOCCOCC(=O)N[C@H](C(=O)N4C[C@H](O)C[C@H]4C(=O)NCc4ccc(-c5scnc5C)cc4)C(C)(C)C)nn3)C2)n2nccc2n1 [Compound 34.0]
> 10 µM | CCC(CC)c1cc(N[C@H]2CC[C@H](NCC(=O)NCc3cn(CCOCC(=O)N[C@H](C(=O)N4C[C@H](O)C[C@H]4C(=O)NCc4ccc(-c5scnc5C)cc4)C(C)(C)C)nn3)C2)n2nccc2n1 [Compound 25.0]
> 10 µM | CCC(CC)c1cc(N[C@H]2CC[C@H](NCC(=O)NCCCc3cn(CCOCCOCC(=O)N[C@H](C(=O)N4C[C@H](O)C[C@H]4C(=O)NCc4ccc(-c5scnc5C)cc4)C(C)(C)C)nn3)C2)n2ncc(Cl)c2n1 [Compound 44.0]

Reference: patent US20250188084A1, “COMPOUNDS AND METHODS FOR MODULATING CDK9 ACTIVITY” (KRONOS BIO, INC., priority 2020, published 2025)
